Assay results as given in patent US8461124B2, “Five- and six-membered conformationally locked 2′,4′-carbocyclic ribo-thymidines for the treatment of infections and cancer” (priority 2007, dated 2013).

Tests used:
[1] = system: complementary RNA; assay: Thermal denaturation (UV melting) of AON duplexes with complementary RNA; type: binding; details: for Tm/° C. with RNA: 1 μM of each strand, medium salt buffer pH 7.5, average of at least three runs; for ΔTm (Tm relative to RNA compliment): relative to native AON 1/RNA duplex
Method: All 17 modified AONs have been purified as a single component on PAGE (20% polyacrylamide with 7 Molar urea), extracted with 0.3 M NaOAc and desalted with C-18 reverse phase cartridge to give AONs in >99% purity and correct mass have been obtained by MALDI-TOF mass spectroscopy for each one them (Table 1). Determination of the Tm of the AON/RNA hybrids was carried out in the following buffer: 57 mM Tris-HCl (pH 7.5), 57 mM KCl, 1 mM MgCl2. Absorbance was monitored at 260 nm in the temperature range from 20° C. to 90° C. using UV spectrophotometer equipped with Peltier temperature programmer with the heating rate of 1° C. per minute. Prior to measurements, the samples (1 μM of AON and 1 μM RNA mixture) were pre-annealed by heating to 90° C. for 5 min followed by slow cooling to 4° C. and 30 min equilibration at this temperature and are average of at least three independent runs.

[2] = system: complementary DNA; assay: Thermal denaturation (UV melting) of AON duplexes with complementary DNA; type: binding; details: for Tm/° C. with DNA: 1 μM of each strand, medium salt buffer pH 7.5, average of at least three runs; for ΔTm* (Tm relative to DNA compliment): relative to native AON 1/DNA duplex
[3] = Stability of 5′-32P-labeled AONs in human blood serum (PAGE autoradiography); type: in vitro ADME
Method: FIG. 4. Autoradiograms of 20% denaturing PAGE showing degradation patterns of 5′-^32P-labeled AONs in human blood serum (Table 1 for all AON sequences). Inset A: AON 1 and LNA-modified AONs 2-5. Inset B: Carbocyclic-LNA-modified AONs 6-9. Inset C: Carbocyclic-ENA-modified AONs 10-13 and Inset D: aza-ENA-modified AONs 14-17. Time points are taken after 0, ½, 1 h, 2 h, 5 h, 7 h, 9 h, 12 h, for AONs 1-5 and 0 h, 6 h, 8 h, 12 h, 24 h, 36 h and 48 h of incubation for AONs 6-17 at 21° C. (see Experimental Section for details).
Modified sequences (Table 1), ^32P-labeled at 5′-ends, were digested in human blood serum at 21° C. as shown in the PAGE autoradiograms (Insets A, B, C and D in FIG. 4). In order to understand
AONs (6 μL) at 2 μM concentration (5′-end ^32P labeled with specific activity 80 000 cpm) were incubated in […] of human blood serum (male AB) at 21° C. (total reaction volume was 36 μL) and the experiments were repeated twice up to 48 h. Aliquots (3 μL) were taken at 0, 30 min, 1, 2, 5, 7, 8, 9, 12, 24, 36, 48 h and quenched with 7 μL of solution containing 8 M urea and 50 mM EDTA, resolved in 20% polyacrylamide denaturing (7 M urea) gel electrophoresis and visualized by autoradiography. […] Since no new prominent cleavage products were found toward the later time points, we considered those prominent stable initial fragments as 100% during the last time points (12-48 h).

[4] = molecular target: E. coli RNase H1 (Escherichia coli, UniProt P0A7Y4); details: AON/RNA duplex
Chain of E. coli RNase H1 (P0A7Y4 whole entry): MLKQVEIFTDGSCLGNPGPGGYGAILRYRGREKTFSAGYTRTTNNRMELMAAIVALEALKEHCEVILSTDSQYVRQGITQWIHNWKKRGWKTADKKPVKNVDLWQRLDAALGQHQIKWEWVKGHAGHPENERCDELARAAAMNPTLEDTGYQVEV
Method: Autoradiograms of 20% denaturing PAGE, showing the cleavage kinetics of 5′-^32P-labeled target RNA by E. coli RNase H1 in the AONs 1-17 after 2, 5, 10, 15, 30 and 60 min of incubation. Conditions of cleavage reactions: RNA (0.8 μM) and AONs (4 μM) in buffer containing 20 nM Tris-HCL (pH 8.0), 20 mM KCL, 10 mM Mgcl2, and 0.1 mM DTT at 21° C.; 0.04 U of RNase H1. Inset A: LNA-T modified AONs 2-5 with native AON 1. Inset B: carbocyclic-LNA-T modified AONs 6-9. Inset C: carbocyclic-ENA-T modified AONs 10-13 with native AON 1. Inset D: aza-ENA-T modified AONs 14-17 with native AON 1. The graphs in Insets E, F, G, and H show the kinetics of RNase H1 mediated cleavage of the target RNA, the remaining fraction of target RNA is measured densitometrically and plotted as a function of time fitted to a single exponential decay function. Inset E: AON 1 with AONs 2-5. Inset F: for AON 1 with AONs 6-9. Inset G: AON 1 and AONs 10-13. Inset H: AON 1 and AONs 14-17.
The cleavage rates of RNase H digestion were determined by densitometric quantification of gels and subsequently by plotting the uncleaved RNA fraction as a function of time (Insets E-H in FIG. 6). The reaction rates were obtained by fitting the degradation curves to single-exponential decay functions.

Row | Substance | Tm/° C. with RNA [1] [°C] | ΔTm (Tm relative to RNA compliment) [1] | Tm/° C. with DNA [2] [°C] | ΔTm* (Tm relative to DNA compliment) [2] | further results
1 | 3′-d(CTT(5-carbo)CTTTTTTACTTC)-5′ (antisense CTTCTTTTTTACTTC; carbocyclic-LNA-T at position 3 from 3'-end, chemistry not fully specified) [AON 6, carbocyclic-LNA-T modified AON, position 3 from 3′-end] | 47.5 | +3.5 °C | 45 | 0.00 °C | time to give the n−1 fragment (hydrolysis of 3′-terminal nucleotide) ([3]; human blood serum, 21° C.): 2 h
2 | 3′-d(CTT(6-carbo)CTTTTTTACTTC)-5′ (antisense CTTCTTTTTTACTTC; carbocyclic-ENA-T at position 3 from 3'-end, chemistry not fully specified) [AON 10, carbocyclic-ENA-T modified AON, position 3 from 3′-end] | 45.5 | +1.5 °C | 43.5 | −1.5 °C | time to give the n−1 fragment (hydrolysis of 3′-terminal nucleotide) ([3]; human blood serum, 21° C.): 2 h
3 | 3′-d(CTT(LNA)CTTTTTTACTTC)-5′ (antisense CTTCTTTTTTACTTC; LNA-T at position 3 from 3'-end, chemistry not fully specified) [AON 2, LNA-T modified AON, position 3 from 3′-end] | 48 | +4 °C | 47 | +2 °C | serum stability compared with native AON 1 ([3]; human blood serum cleavage pattern): only slightly more stable than the native counterpart; time to full degradation ([3]; human blood serum, 21° C.): 9 h; time to give the n−1 fragment ([3]; human blood serum, 21° C.): 35 min; time to give the n−2 fragment as major product ([3]; human blood serum, 21° C.): 5 h
4 | 3′-d(CTT(aza-ENA)CTTTTTTACTTC)-5′ (antisense CTTCTTTTTTACTTC; aza-ENA-T at position 3 from 3'-end, chemistry not fully specified) [AON 14, aza-ENA-T modified AON, position 3 from 3′-end] | – | – | – | – | time to give the n−1 fragment (hydrolysis of 3′-terminal nucleotide) ([3]; human blood serum, 21° C.): ≤ 5 h; fraction of n−1 fragment ([3]; human blood serum, after 12 h): ca. 65%; fraction of n−2 fragment ([3]; human blood serum, after 12 h): ~35%; fraction of n−1 fragment ([3]; human blood serum, within 5 h): ca. 85%; fraction of n−2 fragment ([3]; human blood serum, within 5 h): ca. 15%
5 | 3′-d(CTTCT T(LNA)TTTTACTTC)-5′ [AON 3] | 49 | +5 °C | 46.5 | +1.5 °C | –
6 | 3′-d(CTTCTT(5-carbo)TTTTACTTC)-5′ (antisense CTTCTTTTTTACTTC; carbocyclic-LNA-T at position 6 from 3'-end, chemistry not fully specified) [AON 7, carbocyclic-LNA-T modified AON, position 6 from 3′-end] | 49 | +5 °C | 44 | −1.00 °C | –
7 | 3′-d(CTTCTT(6-carbo)TTTTACTTC)-5′ [AON 11] | 45.5 | +1.5 °C | 39.5 | −5.5 °C | –
8 | 3′-d(CTTCTT(aza-ENA)TTTTACTTC)-5′ (antisense CTTCTTTTTTACTTC; aza-ENA-T at position 6 from 3'-end, chemistry not fully specified) [AON 15, aza-ENA-T modified AON, position 6 from 3′-end] | 46.5 | +2.5 °C | 42.5 | −2.5 °C | –
9 | 3′-d(CTTCTTTT(5-carbo)TTACTTC)-5′ (antisense CTTCTTTTTTACTTC; carbocyclic-LNA-T at position 8 from 3'-end, chemistry not fully specified) [AON 8, carbocyclic-LNA-T modified AON, position 8 from 3′-end] | 48 | +4 °C | 44 | −1.00 °C | –
10 | 3′-d(CTTCTTTT(6-carbo)TTACTTC)-5′ [AON 12] | 45.5 | +1.5 °C | 40.0 | −5.0 °C | –
11 | 3′-d(CTTCTTTT(LNA)TTACTTC)-5′ (antisense CTTCTTTTTTACTTC; LNA-T at position 8 from 3'-end, chemistry not fully specified) [AON 4, LNA-T modified AON, position 8 from 3′-end] | 49 | +5 °C | 45.0 | 0.0 °C | –
12 | 3′-d(CTTCTTTT(aza-ENA)TTACTTC)-5′ (antisense CTTCTTTTTTACTTC; aza-ENA-T at position 8 from 3'-end, chemistry not fully specified) [AON 16, aza-ENA-T modified AON, position 8 from 3′-end] | 47.5 | +3.5 °C | 42 | −3 °C | –
13 | 3′-d(CTTCTTTTTT(5-carbo)ACTTC)-5′ (antisense CTTCTTTTTTACTTC; carbocyclic-LNA-T at position 10 from 3'-end, chemistry not fully specified) [AON 9, carbocyclic-LNA-T modified AON, position 10 from 3′-end] | 47.5 | +3.5 °C | 43.0 | −2.00 °C | –
14 | 3′-d(CTTCTTTTTT(6-carbo)ACTTC)-5′ [AON 13] | 45.5 | +1.5 °C | 39.5 | −5.5 °C | –
15 | 3′-d(CTTCTTTTTT(LNA)ACTTC)-5′ (antisense CTTCTTTTTTACTTC; LNA-T at position 10 from 3'-end, chemistry not fully specified) [AON 5, LNA-T modified AON, position 10 from 3′-end] | 49 | +5 °C | 46 | +1 °C | –
16 | 3′-d(CTTCTTTTTT(aza-ENA)ACTTC)-5′ (antisense CTTCTTTTTTACTTC; aza-ENA-T at position 10 from 3'-end, chemistry not fully specified) [AON 17, aza-ENA-T modified AON, position 10 from 3′-end] | 48 | +4 °C | 42 | −3 °C | –
17 | 3′-d(CTTCTTTTTTACTTC)-5′ (DNA, backbone not given here) [AON 1] | 44 | – | 45 | – | time to full degradation ([3]; human blood serum, 21° C.): ≤ 12 h; RNase H cleavage pattern of the RNA compliment [4]: cleaved quite randomly with a slight preference after A-8 position
18 | (1R,3R,4R,5R,7S)-7-(2-(Cyanoethoxy-(diisopropylamino)-phosphinoxy)-1-(4,4′-dimethoxytrityloxy methyl)-3-(thymin-1-yl)-2-oxa-bicyclo[2.2.1]heptane [Compound 14] | 48 | +4 °C | 44.5 | −0.5 °C | –
